Reference: patent publication US20160186066A1, “METHODS AND SYSTEMS FOR PROCESSING CELLULOSIC BIOMASS” (priority 2014, published 2016)
Read-outs that look alike come from different tables or passages of the source.

Key:
[1] = MIBC re-extraction (step #2) of layer from initial MIBC extraction (Example 4); type: physicochemical
Experimental: One part of the upper organic-rich upper layer from Example 3 was removed prior to distillation, extracted with one part by weight of MIBC solvent, by shaking for 3 minutes in a vial via mechanical shaker, followed by allowing to phase separate overnight at 25° C.
Extraction efficiency as measured by the partition coefficient K increased with increasing carbon number for the light alcohol. Glycols EG and PG were not extracted.

[2] = 3 min
Experimental: (§1) The reaction product mixture was extracted with one part of by weight solvent, with mixing for a minimum of three minutes, followed by phase separation overnight at 25° C.

[3] = Solubility of MPP in deionized water (turbidity); type: physicochemical; settings: 1 wt % solution, room temperature
[4] = Extraction of phenols from 1% aqueous solution with toluene or heptane (Examples 5E-5H); settings: for amount remaining in / lost to the aqueous phase: Ex 5F, 1% MPP in water extracted with heptane; for amount left in / lost to the aqueous layer: Ex 5G, 1% m-cresol solution extracted with toluene
[5] = Comparison of extraction solvents on simulated aqueous reaction product mixture (Examples 5A-5D)
Experimental: as §1

Structure (SMILES): OCCO [EG, ethylene glycol]
- Extr #2 % extract [1]: not extracted

Structure (SMILES): CC(C)CC(C)O (stereo not drawn) [MIBC, methylisobutylcarbinol]
- oil/water partition coefficient of extraction solvent components [2]: 48

Structure (SMILES): CCCc1ccc(O)c(OC)c1 [MPP, 2-methoxy-4-propylphenol]
- solubility in deionized water (turbidity) [3]: only partial solubility
- partition coefficient, weight percent in organic layer extract vs. lower layer aqueous fraction ([4]; Ex 5E, 1 wt % MPP in water extracted with one part toluene): 161.7
- amount remaining in / lost to the aqueous phase [4]: 0.08 wt %
- partition coefficient for distribution of extraction solvent between organic and aqueous layers ([5]; Ex 5B, MPP as extraction solvent): 612
- oil/water partition coefficient of extraction solvent components ([5]; Ex 5C, MPP/MIBC mixture as extraction solvent): 462

Structure (SMILES): CC(O)CO (stereo not drawn) [PG, 1,2-propylene glycol]
- Extr #2 % extract [1]: not extracted

Structure (SMILES): Cc1cccc(O)c1 [cresol, meta-cresol]
- amount left in / lost to the aqueous layer [4]: 0.05 wt %

Structure (SMILES): CCCCCCC [heptane]
- amount remaining in / lost to the aqueous phase [4]: 0.07 wt %
- lost to the aqueous layer ([4]; Ex 5H, 1% m-cresol solution extracted with heptane): 0.015%

Structure (SMILES): Cc1ccccc1 [toluene]
- amount left in / lost to the aqueous layer [4]: 0.04 wt %
